# According to patent US20090286750A1, “USE OF RIBOSE IN LESSENING THE CLINICAL SYMPTOMS OF ABERRANT FIRING OF NEURONS” (priority 2008, published 2009):
# Where two headings read alike, the source gives them in different places.
# Experiments:
# [1] = regardless of the measured serum level of D-Ribose; cited from earlier work
# [2] = tested on: two familial males with RLS; experiment: Restless Legs Syndrome case study, oral D-ribose at three dosing regimens; assay type: in vivo, human
# Description: We present a report on two familial males with RLS in which the supplementation of D-ribose produced a benefit in lessening the occurrence and severity of their daily symptoms. Both affected male individuals were from a positive family prevalence, three generations carrying the diagnosis of RLS. These males involved the latter two generations, parent and child, respectively. Both men had no underlying medical conditions. Their symptoms of RLS date back for decades and presently have progressed to the moderate to severe discomfort stage, mainly experienced during sedentary periods throughout the day with exacerbation of symptoms during nocturnal sleep. Both individuals were introduced to D-ribose. To evaluate any potential benefits of D-ribose in RLS, each individual orally consumed D-ribose (five grams per dose) daily at different trial dosing regimens. Each trial dosing regimen lasted for three weeks with a two week interval washout between dosing regimens. The initial regimen involved a single dose of oral D-ribose consumed only at breakfast. The second dosing regimen involved consumption of oral D-ribose at breakfast and lunch. In the last dosing regiment, oral D-ribose was taken with all meals, breakfast, lunch and dinner. A diary pertaining to the documentation and severity of RLS symptoms was compiled. The two week washout period between stages was designed to observe any return or worsening of their symptoms. […] Following completion of all dosing regimens of oral D-ribose and with the final wash out period, both males elected to re-start oral dosing of D-ribose at 5 grams/doses three times a day.
# [3] = cited from earlier work
# [4] = Serum D-Ribose levels and half life after infusion or oral administration; assay type: in vivo, human
# Protocol: D-Ribose is found at low levels in the diet and normal serum levels are approximately 2 mg/dl. […] When infused for short periods at the concentrations of 60 mg/kg and 100 mg/kg, D-Ribose levels in the serum rose, in each case, to approximately 25 mg/dl. These doses of D-Ribose, for a 60 kilogram man, are 3.6 and 5 grams, respectively. Doses for larger or smaller size humans can be calculated based on their mass, and are typically 1 to 10 grams. […] Intravenous administration of high doses of D-Ribose can elevate the serum levels to as high as 60 mg/dl, while a further increase in dose to 222.2 mg/kg can produce a serum level as high as 86 mg/dl. See, for example, Gross et al., Klinische Wochenschrift (1991) 69:31-36.
# Serum D-ribose levels should be maintained long enough to establish an effect that will persist after the serum D-ribose level is back to baseline levels. […] Typically, approximately a third of the cardiac output is used to supply energy to the brain.
# [5] = tested on: two familial males with RLS; settings: oral dosage below eight grams at a time, no more often than every two hours; cited from earlier work
# [6] = oral 5 g at breakfast and lunch, three weeks
# [7] = oral 5 g at breakfast, lunch and dinner, three weeks
# [8] = oral 5 g, single dose at breakfast, three weeks
compound,measurement,setting,value
O=C[C@H](O)[C@H](O)[C@H](O)CO [D-Ribose],"decline in serum glucose, ultimate lower level",[1],25%
same,washout complete after ceasing D-ribose supplementation,[2]; RLS study,48 h
same,leg twitching events and urge to move during the day,[2]; [6],reduced for one of the subjects and rarely present in the other
same,nocturnal symptoms,[2]; [6],still experienced the unpleasant sensations during the night
same,diurnal symptoms,[2]; [7],total elimination
same,nocturnal symptoms,[2]; [7],of a much lesser degree and had a later occurrence
same,"general feeling (energy, fatigue)",[2]; [8],more energy and less fatigue
same,symptoms of RLS,[2]; [8],without any significant changes
same,adverse reactions,[2]; oral 5 grams/dose three times a day,without any adverse reactions
same,severity and onset of symptoms affecting quality of life,[2]; re-started oral 5 grams/dose three times a day,substantially improved
same,time to return of clinical RLS symptoms after cessation of oral D-ribose,[2]; washout period,≤ 48 h
same,normal serum levels of D-Ribose,"[3]; baseline, from diet",approximately 2 mg/dl
same,D-Ribose level in the serum,[3]; infused for short periods at 60 mg/kg,approximately 25 mg/dl
same,D-Ribose level in the serum,[3]; infused for short periods at 100 mg/kg,approximately 25 mg/dl
same,half life of D-Ribose in the serum,[3]; infusion 60 mg/kg,11 min
same,half life of D-Ribose in the serum,[3]; infusion 100 mg/kg,16 min
same,serum D-Ribose level,[3]; intravenous administration of high doses,≤ 60 mg/dL
same,serum D-Ribose level,"[3]; intravenous, further increase in dose to 222.2 mg/kg",≤ 86 mg/dL
same,serum D-Ribose level,"[3]; oral, four hours of 83.2 mg/kg per hour",29.25 mg/dL
same,serum D-Ribose level,"[3]; oral, four hours of 166.7 mg/kg per hour",35 mg/dL
same,time for serum D-Ribose levels to drop to near baseline of two mg/dl,[4]; at a 15 minute half life,within an hour
same,half-life,"[4]; human, serum, assumed from the above oral pharmacokinetic information",15 min
same,side effects,[5],no side effects
